Experimental data taken from patent US9273084B2, “Moenomycin analogs, methods of synthesis, and uses thereof” (priority 2012, dated 2016).
Counter-ions that a name gives are not always drawn.

Experiments:
E. coli NR698 = assay type: cell-based; design: unit not given beside the values; conditions: LB, 35-37° C., 20 h
Experimental: (§1) A 96 well plate with 100 μL test medium in all wells was prepared by handheld multipipettor. A stock solution of the antibiotic or compound in DMSO (0.05˜10 mg/mL, 5 μL) and the same medium (95 μL) were put together into column one, where the compound concentration doubled the highest one to be tested. Two columns were necessary for each compound to check the reproducibility. The compound was diluted by adding 100 μL from column one to column two with a 50% volume mix done three times; diluting serially across the plate was continued.
(§2) The day before the assay was scheduled to be run, strains were suspended in the test media (Brain Heart Infusion (BHI) containing 0.1% casamino acids for S. aureus, S. epidermidis, and E. faecalis, Trypticase Soy Broth (TSB) containing 5% sheep blood for S. pneumoniae, and Lysogeny Broth (LB) for E. coli) and incubated overnight at 35-37° C. The suspension was diluted with the same media to 1%, 100 μL of which was added to each well of the MIC plate. The MIC plate was incubated at 35-37° C. for 20 h. A thiazolyl blue tetrazolium bromide (MTT) solution (1 mg/mL-water, 50 μL) was added into each well and the resulting MIC plate was incubated at 35-37° C. for a few hours to stain wells in which cell proliferated. Growth is also visible as any turbidity in wells.

S. pneumoniae 6303 = test: MIC assay, 96 well broth dilution with MTT staining; assay type: cell-based; conditions: TSB containing 5% sheep blood, 35-37° C., 20 h
Experimental: as §1, §2

S. pneumoniae #1629 = test: as above; assay type: cell-based; conditions: TSB containing 5% sheep blood, 35-37° C., 20 h
Experimental: as §1, §2

S. epidermidis 1228 = test: as above; assay type: cell-based; design: unit not given beside the values; conditions: BHI containing 0.1% casamino acids, 35-37° C., 20 h
Experimental: as §1, §2

S. aureus 25923 = test: as above; assay type: cell-based; design: unit not given beside the values; conditions: S. aureus 25923 (second strain line); BHI containing 0.1% casamino acids; 35-37° C., 20 h
Experimental: as §1, §2

E. coli MG1655 = test: as above; assay type: cell-based; design: unit not given beside the values; conditions: LB, 35-37° C., 20 h
Experimental: as §1, §2

E. faecalis 33186 = test: as above; assay type: cell-based; design: unit not given beside the values; conditions: BHI containing 0.1% casamino acids, 35-37° C., 20 h
Experimental: as §1, §2

E. faecalis 29212 = test: as above; assay type: cell-based; design: unit not given beside the values; conditions: BHI containing 0.1% casamino acids, 35-37° C., 20 h
Experimental: as §1, §2

S. aureus 13709 = test: as above; assay type: cell-based; design: unit not given beside the values; conditions: BHI containing 0.1% casamino acids, 35-37° C., 20 h
Experimental: as §1, §2

S. epidermidis 700562 = test: as above; assay type: cell-based; design: unit not given beside the values; conditions: BHI containing 0.1% casamino acids, 35-37° C., 20 h
Experimental: as §1, §2

Gram-positive organisms = conditions: against Gram-positive organisms; cited from earlier work
[1] = Pharmacokinetics following IV and SC administration; assay type: in vivo; conditions: for half-life: NCA analysis
Experimental: Curtailing the tail portion of Moenomycin A (MmA) led to shorter half-life. […] The clearance following IV administration was very low leading higher exposure (3 mL/hr/kg) and volume of distribution (Vss) was 0.5 L/kg.

[2] = S. aureus 13709 (first strain line)
[3] = S. aureus 13709 (third strain line)

Structure (SMILES) | MIC (E. coli NR698) | MIC (S. pneumoniae 6303) | MIC (S. pneumoniae #1629) | MIC (S. epidermidis 1228) | MIC (S. aureus 25923) | MIC (E. coli MG1655) | MIC (E. faecalis 33186) | MIC (E. faecalis 29212) | MIC (S. aureus 13709; [2]) | MIC (S. aureus 13709; [3]) | MIC (S. epidermidis 700562) | potency compared with vancomycin (Gram-positive organisms) | clearance ([1]; IV administration (2 mpk)) [mL/h/kg] | volume of distribution (Vss) ([1]; IV administration (2 mpk)) [L/kg] | half-life ([1]; IV administration (2 mpk)) [days] | % SC bioavailability ([1]; SC (10 mpk) vs IV (2 mpk)) [%] | half-life ([1]; SC administration (10 mpk)) [days] | systemic exposure ([1]; following IV (2 mpk) and SC (10 mpk) administration)
CC(=O)NC1C(OC2C(COC3OC(CO)C(O)C(O)C3O)OC(OC3C(OP(=O)(O)OCC(OCc4cccc(OCc5cccc(-c6cccc(OCc7ccccc7)c6)c5)c4)C(=O)O)OC(C(N)=O)C(C)(O)C3OC(N)=O)C(NC(C)=O)C2O)OC(C)C(OC2OC(C(=O)NC3=C(O)CCC3=O)C(O)C(O)C2O)C1O.N [1i, N1-[(2-Hydroxy-5-oxo-cyclopenten-1-yl)-(5S)-β-D-galactopyranuronamide]-(1→4)-2-acetamide-2,6-dideoxy-β-D-gluopyranosyl-(1→4)-[β-D-glucopyranosyl-(1→6)]-2-acetamido-2-deoxy-β-D-glucopyranosyl)-(1→2)-3-O-carbamoyl-1-O—{[(R)-2-carboxy-2-(3-((3′-(benzyloxy)-[1,1′-biphenyl]-3-yl)methoxy)phenylmethan-1-yloxy)ethoxy]hydroxyphosphoryl}-4-C-methyl-α-D-glucopyranuronamide] | 0.49 | 3.9 | 7.8 | 3.9 | 7.8 | > 250 | 32 | 16 | 7.8 | 7.8 | 7.8 | – | – | – | – | – | – | –
C=C(C/C=C(\C)CCC=C(C)C)CCC(C)(C)/C=C/CC/C(C)=C/CO[C@@H](COP(=O)(O)O[C@H]1O[C@H](C(N)=O)[C@@](C)(O)[C@H](OC(N)=O)[C@H]1O[C@@H]1O[C@H](CO[C@@H]2O[C@H](CO)[C@@H](O)[C@H](O)[C@H]2O)[C@@H](O[C@@H]2O[C@H](C)[C@@H](O[C@@H]3O[C@H](C(=O)NC4=C(O)CCC4=O)[C@H](O)[C@H](O)[C@H]3O)[C@H](O)[C@H]2NC(C)=O)[C@H](O)[C@H]1NC(C)=O)C(=O)O [Moenomycin A] | 0.0098 | – | – | – | 0.16 | 31 | – | – | 0.16 | 0.078 | – | 10-1000 times | 3 | 0.5 | 8.7 | 89 | 7.5 | significant systemic exposure
CN[C@H](CC(C)C)C(=O)N[C@H]1C(=O)N[C@@H](CC(N)=O)C(=O)N[C@H]2C(=O)N[C@H]3C(=O)N[C@H](C(=O)N[C@H](C(=O)O)c4cc(O)cc(O)c4-c4cc3ccc4O)[C@H](O)c3ccc(c(Cl)c3)Oc3cc2cc(c3O[C@@H]2O[C@H](CO)[C@@H](O)[C@H](O)[C@H]2O[C@H]2C[C@](C)(N)[C@H](O)[C@H](C)O2)Oc2ccc(cc2Cl)[C@H]1O [Vancomycin•HCl, reference compound] | 0.49 | 0.49 | 0.49 | 2.0 | 3.9 | 250 | 2.0 | 3.9 | 3.9 | 2.0 | 3.9 | – | – | – | – | – | – | –
CCCCCCCCCCCCCCCCOC(COP(=O)(O)OC1OC(C(N)=O)C(C)(O)C(OC(N)=O)C1OC1OC(COC2OC(CO)C(O)C(O)C2O)C(OC2OC(C)C(OC3OC(C(=O)NC4=C(O)CCC4=O)C(O)C(O)C3O)C(O)C2NC(C)=O)C(O)C1NC(C)=O)C(=O)O.N [1g, N1-[(2-Hydroxy-5-oxo-cyclopenten-1-yl)-(5S)-β-D-galactopyranuronamide]-(1→4)-2-acetamide-2,6-dideoxy-β-D-gluopyranosyl-(1→4)-[β-D-glucopyranosyl-(1→6)]-2-acetamido-2-deoxy-β-D-glucopyranosyl)-(1→2)-3-O-carbamoyl-1-O—{[(R)-2-carboxy-2-(hexadecan-1-yloxy)ethoxy]hydroxyphosphoryl}-4-C-methyl-α-D-glucopyranuronamide] | 0.16 | 16 | 16 | 16 | 16 | 250 | 16 | 31 | 16 | 16 | 31 | – | – | – | – | – | – | –
